Data on one compound can be found in publication PMC5951611, “Structural studies and molecular dynamics simulations suggest a processive mechanism of exolytic lytic transglycosylase from Campylobacter jejuni” (PLoS ONE, 2018).

As a reminder, the Kd is a measure of binding affinity in units of concentration. Low readings indicate higher affinity, high ones lower affinity.

This assay deals with T1, soluble lytic transglycosylase Cj0843 (Campylobacter jejuni, UniProt Q0PA47).
T1 construct: gene Cj0843c; Cj0843-pET28b expressed in E. coli (not glycosylated); native P3_121 model contains residues 19–76 and 81–532
Nature of the assay: crystal structure ([…] Å, soaked crystals) and DSF Kd; also partial inhibition in PG turbidity assay. Format: binding.

T1 sequence (Q0PA47 entry or part of it): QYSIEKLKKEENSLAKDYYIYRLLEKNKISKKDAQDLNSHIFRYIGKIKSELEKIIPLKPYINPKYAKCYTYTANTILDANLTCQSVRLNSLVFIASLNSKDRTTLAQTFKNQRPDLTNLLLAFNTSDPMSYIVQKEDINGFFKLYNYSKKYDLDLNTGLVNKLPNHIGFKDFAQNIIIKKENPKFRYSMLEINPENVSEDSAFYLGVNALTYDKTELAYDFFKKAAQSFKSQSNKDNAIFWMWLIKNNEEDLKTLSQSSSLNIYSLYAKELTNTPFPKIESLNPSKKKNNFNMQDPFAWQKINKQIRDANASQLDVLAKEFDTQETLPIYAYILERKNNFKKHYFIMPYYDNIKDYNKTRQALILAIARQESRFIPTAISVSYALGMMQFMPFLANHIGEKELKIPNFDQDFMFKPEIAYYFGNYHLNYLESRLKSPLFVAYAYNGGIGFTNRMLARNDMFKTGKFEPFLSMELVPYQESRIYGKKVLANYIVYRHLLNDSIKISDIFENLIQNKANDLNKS

`CC(=O)N[C@H]1[C@H](O[C@H]2C[C@@H](C(=O)NCCS(=O)(=O)O)N[C@@H]2CO)O[C@H](CO)[C@@H](OS(=O)(=O)O)[C@@H]1O` [bulgecin A] showed a Kd of 210 µM.
